Assay results reported in patent US20140336184A1, “METHOD TO ENHANCE COGNITION” (priority 2011, published 2014).

Legend:
[1] = test system: hippocampal slices from WT mice; experiment: Field recording (population spikes, fEPSPs) in CA1 of hippocampal slices; format: cell-based, mouse
Experimental: Field recording: horizontal hippocampal slices ([…]) were cut from brains of WT or age-matched Pkr^−/− littermates in 4° C. artificial cerebrospinal fluid (ACSF) and kept in ACSF at room temperature for at least one hr before recording, as described (Zhu et al., 2005). Slices were maintained in an interface-type chamber perfused with oxygenated ACSF (95% O2 and 5% CO2) containing in mM: 124 NaCl, 2.0 KCl, 1.3 MgSO4, 2.5 CaCl2, 1.2 KH2PO4, 25 NaHCO3, and 10 glucose (2-3 ml/min). Bipolar stimulating electrodes were placed in the CA1 stratum radiatum to stimulate Schaffer collateral and commissural fibers. Field potentials were recorded using ACSF-filled micropipettes at 28-29° C. The recording electrodes were placed in the stratum radiatum for field excitatory postsynaptic potentials (fEPSPs), and stratum pyramidale for population spikes. The stimulus strength of the 0.1 ms pulses was adjusted to evoke 30-35% of maximum response for fEPSPs, and 50% of maximal response for population spikes. A stable baseline of responses was established for at least 30 min at 0.033 Hz. Tetanic LTP was induced by high-frequency stimulation in brief trains (100 Hz, 1 s), applied either as a single train or four trains separated by 5 min intervals. A short train consisted of 5 stimuli (100 Hz within-burst). When indicated, ACSF was supplemented with anisomycin (Calbiochem, Calif.), PKRi (Calbiochem, Calif.), bicuculline (Tocris) or diazepam (Sigma-Aldrich). It should be noted that the inventors used bicuculline free base which only blocks GABAA receptor rather than bicuculline-M (bicuculline methiodide, methobromide or methochloride) which in addition to GABAA receptor also blocks small conductance (SK) calcium-activated potassium channels (Debarbieux et al., 1998). […] To reduce day-to-day variations, whenever possible simultaneous recordings (in the same chamber) were obtained from slices from Pkr^−/− mice and WT littermates treated with drugs or vehicle. Statistical analysis was performed using t-test and two-way ANOVA. All data are presented as means±SEM and “n” indicates the number of slices.

PKR [2] = target: T1, PKR (Homo sapiens, UniProt P19525); conditions: final concentration of 1 μM (Page et al., 2006; Wang et al., 2007); cited from earlier work
PKR [3] = target: T2, PKR (Rattus norvegicus, UniProt Q63184); conditions: dose of 0.1 mg/kg i.p. (Ingrand et al., 2007); cited from earlier work
T2 sequence (Q63184 1-513): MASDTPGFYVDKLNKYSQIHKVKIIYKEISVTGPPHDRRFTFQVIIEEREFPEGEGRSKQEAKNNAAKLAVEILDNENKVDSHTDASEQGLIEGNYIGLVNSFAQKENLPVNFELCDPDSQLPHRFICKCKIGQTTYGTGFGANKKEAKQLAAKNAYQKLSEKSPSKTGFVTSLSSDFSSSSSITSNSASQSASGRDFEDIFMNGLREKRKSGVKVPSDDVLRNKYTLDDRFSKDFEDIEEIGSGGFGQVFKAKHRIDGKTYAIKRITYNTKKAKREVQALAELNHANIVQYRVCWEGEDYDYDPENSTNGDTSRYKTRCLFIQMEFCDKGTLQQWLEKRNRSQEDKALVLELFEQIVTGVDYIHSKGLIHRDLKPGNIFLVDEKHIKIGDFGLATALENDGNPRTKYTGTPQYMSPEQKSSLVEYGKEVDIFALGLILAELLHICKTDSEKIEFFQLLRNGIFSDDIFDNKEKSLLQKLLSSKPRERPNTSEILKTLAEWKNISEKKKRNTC

[4] = test system: CA1 neurons in Pkr−/− hippocampal slices; experiment: Whole-cell patch clamp recording of synaptic currents; format: cell-based, mouse; conditions: PKRi
PKR [5] = target: T1, PKR; conditions: Jammi et al., 2003; Shimazawa and Hara, 2006; cited from earlier work
[6] = test system: hippocampal slices from Pkr−/− mice; experiment: Field recording (population spikes) in CA1 of hippocampal slices; format: cell-based, mouse; conditions: PKRi
Experimental: Field recording: horizontal hippocampal slices ([…]) were cut from brains of WT or age-matched Pkr^−/− littermates in 4° C. artificial cerebrospinal fluid (ACSF) and kept in ACSF at room temperature for at least one hr before recording, as described (Zhu et al., 2005). Slices were maintained in an interface-type chamber perfused with oxygenated ACSF (95% O2 and 5% CO2) containing in mM: 124 NaCl, 2.0 KCl, 1.3 MgSO4, 2.5 CaCl2, 1.2 KH2PO4, 25 NaHCO3, and 10 glucose (2-3 ml/min). Bipolar stimulating electrodes were placed in the CA1 stratum radiatum to stimulate Schaffer collateral and commissural fibers. Field potentials were recorded using ACSF-filled micropipettes at 28-29° C. The recording electrodes were placed in the stratum radiatum for field excitatory postsynaptic potentials (fEPSPs), and stratum pyramidale for population spikes. The stimulus strength of the 0.1 ms pulses was adjusted to evoke 30-35% of maximum response for fEPSPs, and 50% of maximal response for population spikes. A stable baseline of responses was established for at least 30 min at 0.033 Hz. Tetanic LTP was induced by high-frequency stimulation in brief trains (100 Hz, 1 s), applied either as a single train or four trains separated by 5 min intervals. A short train consisted of 5 stimuli (100 Hz within-burst). […]

[7] = test system: Pkr−/− hippocampal slices; format: cell-based, mouse
Experimental: (§1) Field recording: horizontal hippocampal slices ([…]) were cut from brains of WT or age-matched Pkr^−/− littermates in 4° C. artificial cerebrospinal fluid (ACSF) and kept in ACSF at room temperature for at least one hr before recording, as described (Zhu et al., 2005). Slices were maintained in an interface-type chamber perfused with oxygenated ACSF (95% O2 and 5% CO2) containing in mM: 124 NaCl, 2.0 KCl, 1.3 MgSO4, 2.5 CaCl2, 1.2 KH2PO4, 25 NaHCO3, and 10 glucose (2-3 ml/min). Bipolar stimulating electrodes were placed in the CA1 stratum radiatum to stimulate Schaffer collateral and commissural fibers. Field potentials were recorded using ACSF-filled micropipettes at 28-29° C. The recording electrodes were placed in the stratum radiatum for field excitatory postsynaptic potentials (fEPSPs), and stratum pyramidale for population spikes. The stimulus strength of the 0.1 ms pulses was adjusted to evoke 30-35% of maximum response for fEPSPs, and 50% of maximal response for population spikes. A stable baseline of responses was established for at least 30 min at 0.033 Hz. Tetanic LTP was induced by high-frequency stimulation in brief trains (100 Hz, 1 s), applied either as a single train or four trains separated by 5 min intervals. A short train consisted of 5 stimuli (100 Hz within-burst). When indicated, ACSF was supplemented with anisomycin (Calbiochem, Calif.), PKRi (Calbiochem, Calif.), bicuculline (Tocris) or diazepam (Sigma-Aldrich). It should be noted that the inventors used bicuculline free base which only blocks GABAA receptor rather than bicuculline-M (bicuculline methiodide, methobromide or methochloride) which in addition to GABAA receptor also blocks small conductance (SK) calcium-activated potassium channels (Debarbieux et al., 1998). […] To reduce day-to-day variations, whenever possible simultaneous recordings (in the same chamber) were obtained from slices from Pkr^−/− mice and WT littermates treated with drugs or vehicle. Statistical analysis was performed using t-test and two-way ANOVA. […]

adult WT mice = experiment: Video EEG recordings in freely moving mice; format: in vivo, mouse
Source text: Pkr knockout (Pkr^−/−) mice (Abraham et al., 1999) were back-crossed for at least eight generations to 129SvEv mice. Mice were weaned at the third postnatal week and genotyped by PCR. Briefly, the mutant and corresponding WT alleles are detected by a four-primer PCR assay in which Oligo-1 (5′-GGAACITrGGAGCAATGGA-3′) and Oligo-2 (5′-[…]-3′) give a WT band of 225 base-pair fragment and Oligo-3 (5′-TGTTCTGTGGCTATCAGGG-3′) and Oligo-4 (5′-[…]-3′) give a 432 base-pair fragment from the deleted allele. eIF2α^+/S51A mice were previously described (Costa-Mattioli et al., 2007; Scheuner et al., 2001). All experiments were performed on 8-16 weeks old males. The mice were kept on a 12 h light/dark cycle, and the behavioral experiments were always conducted during the light phase of the cycle. The mice had access to food and water ad libitum, except during tests. […]
PKRi (Calbiochem, San Diego), a potent ATP-binding-site-directed inhibitor of PKR which blocks PKR autophosphorylation (Jammi et al., 2003; Shimazawa and Hara, 2006), was prepared as a 20 mM stock solution in DMSO (dimethyl sufloxide). PKRi was freshly dissolved in saline and then injected intraperitoneally (i.p.) at a dose of 0.1 mg/kg and the EEG was recorded 1 hr after injection. A digital video camera simultaneously monitored behavior during the EEG recordings. […]

WT hippocampal slices = experiment: Tetanic LTP (E-LTP/L-LTP) in hippocampal slices; format: cell-based, mouse
Experimental: as §1

WT mice = experiment: Contextual and auditory fear conditioning; format: in vivo, mouse; conditions: PKRi 0.1 mg/kg i.p. immediately after training, n=8
Experimental: The experimenter was blind to the genotype for all behavioral tests. Fear conditioning was performed as previously described (Costa-Mattioli et al., 2007). Mice were first handled for 3-5 min for 3 days and then habituated to the conditioning chamber for 20 min for another 3 days. On the training day, after 2 min in the conditioning chamber, mice received a pairing of a tone (2800 Hz, 85 db, 30 s) with a co-terminating foot-shock (0.35 mA, 1 s), after which they remained in the chamber for two additional min and then were returned to their home cages. Mice were tested 24 hr after training for “freezing” (immobility with the exception of respiration) in response to the tone (in a chamber to which they had not been conditioned) and to the training context (training chamber).
During testing for auditory fear conditioning, mice were placed in the chamber and freezing responses were recorded during the initial 2 min (pre-CS period) and during the last 3 min when the tone was played. Mice were returned to their cages 30 s after the end of the tone. […] For extinction trials, freezing in response to the conditioned context was assessed for 5 min, 24 hr, 48 hr, 72 hr and 96 hr after training and normalized to the amount of freezing obtained at 24 hr. For all tests, freezing behavior was determined at 5 s intervals during a 5 min period. […]

[8] = test system: CA1 neurons in WT hippocampal slices; format: cell-based, mouse
[9] = PKRi 1 μM, −60 mV, kynurenic acid
[10] = PKRi 1 μM, −60 mV, kynurenic acid 2 mM, TTX 1 μM

T1 sequence (P19525 whole entry): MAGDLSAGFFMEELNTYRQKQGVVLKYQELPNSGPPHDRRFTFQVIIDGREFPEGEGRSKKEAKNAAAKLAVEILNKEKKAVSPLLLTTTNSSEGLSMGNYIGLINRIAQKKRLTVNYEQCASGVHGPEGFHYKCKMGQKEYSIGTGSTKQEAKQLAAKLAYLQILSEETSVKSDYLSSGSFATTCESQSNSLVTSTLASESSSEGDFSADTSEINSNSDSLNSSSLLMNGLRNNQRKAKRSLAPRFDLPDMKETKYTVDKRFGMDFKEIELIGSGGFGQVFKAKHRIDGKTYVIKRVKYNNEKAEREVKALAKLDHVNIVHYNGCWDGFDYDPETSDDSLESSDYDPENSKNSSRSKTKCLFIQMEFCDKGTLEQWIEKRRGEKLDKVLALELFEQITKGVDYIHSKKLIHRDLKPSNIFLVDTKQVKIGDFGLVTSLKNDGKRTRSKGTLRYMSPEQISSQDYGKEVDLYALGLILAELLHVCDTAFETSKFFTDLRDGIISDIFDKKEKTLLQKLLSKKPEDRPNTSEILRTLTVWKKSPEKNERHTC

O=C1Nc2ccc3ncsc3c2/C1=C/c1cnc[nH]1 [PKRi]
Decrease of CA1 population spike amplitude during short high frequency train (cumulative inhibition) ([1]; 5 pulses at 100 Hz): minimal or no high-frequency stimulation-induced decrease in spike amplitude
Duration of burst ([1]; PKRi 1 μM, bicuculline 2 μM): increased
Number of evoked spikes ([1]; PKRi 1 μM, bicuculline 2 μM): increased
After-discharges after a single stimulus ([1]; PKRi 1 μM, in presence of bicuculline 2 μM, half-maximal stimulation at 0.03 Hz): pronounced after-discharges
Initial slope of EPSPs ([1]; PKRi 1 μM, single stimulus): did not alter
Presynaptic afferent volley ([1]; PKRi 1 μM, single stimulus): did not alter
Amplitude of population spikes ([1]; PKRi 1 μM, single stimulus, WT slices): enhanced
Population spikes (firing) in slices pre-treated with bicuculline ([1]; WT slices pre-treated with the GABAA antagonist bicuculline): no further enhancement of firing
PKR activity ex-vivo (PKR [2]): known to block PKR activity ex-vivo
PKR activity in the hippocampus in vivo (PKR [3]): known to block PKR activity in the hippocampus in vivo
Amplitude of evoked IPSCs [4]: did not alter
PKR autophosphorylation (PKR [5]): blocks
Population spikes [6]: no effect
LTP elicited by a single 100 Hz train (1 s) ([7]; PKRi, Pkr−/− slices): did not further potentiate LTP
Abnormal EEG activity present (mice affected) (adult WT mice; PKRi 0.1 mg/kg i.p., recorded one hour after injection, absent in all WT controls (n=6), p<0.01): 6 out of 7
Cortical EEG activity (adult WT mice; PKRi 0.1 mg/kg, adult WT mice): induces acute spiking (d) and rhythmic bursts (e)
LTP after a single high frequency train (100 Hz for 1 s) (WT hippocampal slices; PKRi 1 μM, WT slices, at 220 min p<0.001): converts E-LTP into L-LTP
Auditory fear memory (freezing 24 hr after training) (WT mice): enhanced
Contextual fear memory (freezing 24 hr after training) (WT mice): enhanced
Evoked EPSCs ([8]; PKRi 1 μM bath application, picrotoxin 100 μM, −70 mV): no effect
Amplitude of sIPSCs [8, 9]: not amplitude
Frequency of sIPSCs [8, 9]: decreases
Amplitude of mIPSCs [8, 10]: but not their amplitude
Frequency of mIPSCs [8, 10]: decreased
Amplitude of pharmacologically isolated monosynaptic eIPSCs ([8]; PKRi bath-application, 50 μM APV, 10 μM CNQX, 10 μM CGP55845, 0 mV, half-maximal stimulation): reduced
Electrically isolated eIPSCs ([8]; PKRi, holding potential 0 mV, half-maximal stimulation): Reduced
Amplitude or frequency of sEPSCs, mEPSCs or eEPSCs ([8]; WT slices treated with PKRi): not significantly changed
mIPSCs Rise Time 10%-90% ([8]; WT slices treated with PKRi): 1.36 ± 0.07 ms
mIPSCs τW ([8]; WT slices treated with PKRi): 21.28 ± 1.24 ms
sIPSCs Rise Time 10%-90% ([8]; WT slices treated with PKRi): 1.68 ± 0.18 ms
sIPSCs τW ([8]; WT slices treated with PKRi): 22.89 ± 0.78 ms
Paired-pulse depression of IPSCs (IPSC2/IPSC1) ([8]; at 50 ms inter-stimulus interval): reduced

COc1ccc(C[C@H]2NC[C@H](O)[C@H]2OC(C)=O)cc1 [anisomycin]
Facilitated L-LTP after a single train ([7]; anisomycin, Pkr−/− slices, at 220 min p<0.01): suppressed

CN1C(=O)CN=C(c2ccccc2)c2cc(Cl)ccc21 [diazepam]
L-LTP after a single train [7]: prevented the induction of L-LTP
L-LTP induction by four trains at 100 Hz (WT hippocampal slices): blocked L-LTP induction
L-LTP induced by four tetanic trains (WT hippocampal slices; low concentration of diazepam (11 μM), WT slices): no effect
